The source of these data is patent publication US20250353891A1 (MEDIMMUNE LIMITED, priority 2022, published 2025).

Read-outs that look alike come from different tables or passages of the source. Starred links: 1 amine or outer side, 2 acyl side, 3 side chain; linkers in the order of their positions; H or OH if unused. Non-standard residues stand in square brackets, D forms with d. Residues, ends and D or L forms follow the SMILES beside them. Groups on a side chain read outwards from the residue. *: point of attachment. X1 = CC(C)(CCNC(=N)N)[C@H](N[*:1])C(=O)[*:2]; C20 diacid = O=C(O)CCCCCCCCCCCCCCCCCCC(=O)*; C18 diacid = O=C(O)CCCCCCCCCCCCCCCCC(=O)*; γGlu = O=C(O)[C@H](CCC(=O)[*:2])N[*:1]; Stearoyl = CCCCCCCCCCCCCCCCCC(=O)*; Palmitoyl = CCCCCCCCCCCCCCCC(=O)*; αMeF = C[C@](N)(Cc1ccccc1)C(=O)O; PEG2 = NCCOCCOCCC(=O)O; AEEA = NCCOCCOCC(=O)O; Aib = CC(C)(N)C(=O)O

The EC50 is the concentration giving half of the maximal effect.

Test [1] addresses human GLP-1 receptor (hGLP-1R) (Homo sapiens, UniProt P43220). Nature of the test: cAMP production (HTRF) in CHO cells expressing hGLP-1R. The format is cell-based. Details: expressed in transfected cells. The following applies: for % Relative Potency Ratio: % GLP-1R activity relative to GLP-1 / % GlucR activity relative to glucagon. The procedure, abridged: (§1)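 Potency values represent EC50 from 4-parameter logistic curves of HTRF % Delta F signal. Receptor-expressing CHO cells (hGCGR 2×10^5 cells/mL, hGLP-1R 1×10^5 cells/mL) were exposed for 30 min at room temperature before two-step cAMP detection.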
(Changes in cAMP serve as a functional read-out for many G protein-coupled receptors.)

Test [2] concerns the target human glucagon receptor (hGCGR) (Homo sapiens, UniProt P47871). Nature of the test: cAMP production (HTRF) in CHO cells expressing hGCGR. On the set-up: expressed in transfected cells. It counts as cell-based. The following applies: geometric mean. In a few lines: as §1
Setting [3] is: Table 6, peptides modified at position 17, cAMP in CHO hGLP-1R cells, geometric mean, read-out: hGLP-1R EC50.
Setting [4] is: Table 6, peptides modified at position 17, cAMP in CHO hGCGR cells, read-out: hGluc-R EC50.
[5] abbreviates: Table 7, peptides modified at position 20, cAMP in CHO hGLP-1R cells, geometric mean, read-out: hGLP-1R EC50.
The mark [6] stands for this setting: Table 7, peptides modified at position 20, cAMP in CHO hGCGR cells, read-out: hGluc-R EC50.

Sequence of human glucagon receptor (hGCGR) (P47871 26-477): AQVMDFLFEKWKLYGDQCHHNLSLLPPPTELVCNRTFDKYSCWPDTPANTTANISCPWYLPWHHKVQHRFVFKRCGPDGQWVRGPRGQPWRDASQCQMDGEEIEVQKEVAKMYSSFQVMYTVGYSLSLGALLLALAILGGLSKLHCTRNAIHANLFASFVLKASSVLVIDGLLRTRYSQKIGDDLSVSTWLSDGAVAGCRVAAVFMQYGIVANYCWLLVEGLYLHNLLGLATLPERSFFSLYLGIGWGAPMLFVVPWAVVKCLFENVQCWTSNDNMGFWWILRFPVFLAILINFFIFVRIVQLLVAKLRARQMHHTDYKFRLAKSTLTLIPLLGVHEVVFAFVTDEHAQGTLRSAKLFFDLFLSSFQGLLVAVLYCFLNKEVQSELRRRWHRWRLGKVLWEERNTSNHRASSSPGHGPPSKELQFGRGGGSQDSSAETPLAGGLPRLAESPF
Sequence of human GLP-1 receptor (hGLP-1R) (P43220 24-463): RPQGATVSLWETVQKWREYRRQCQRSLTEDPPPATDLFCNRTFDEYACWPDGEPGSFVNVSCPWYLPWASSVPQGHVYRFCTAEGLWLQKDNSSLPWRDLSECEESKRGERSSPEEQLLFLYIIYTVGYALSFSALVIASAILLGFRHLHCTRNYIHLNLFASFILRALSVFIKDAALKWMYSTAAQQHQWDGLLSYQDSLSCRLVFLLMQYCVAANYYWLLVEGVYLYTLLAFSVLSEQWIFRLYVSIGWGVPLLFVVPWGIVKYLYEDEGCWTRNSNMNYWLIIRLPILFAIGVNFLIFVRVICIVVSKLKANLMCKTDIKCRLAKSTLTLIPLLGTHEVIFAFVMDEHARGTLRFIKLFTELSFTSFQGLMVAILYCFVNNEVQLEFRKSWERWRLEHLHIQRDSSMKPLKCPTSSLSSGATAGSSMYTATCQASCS

As for `CC(C)C[C@H](NC(=O)[C@H](Cc1c[nH]c2ccccc12)NC(=O)[C@H](CCC(N)=O)NC(=O)[C@@H](NC(=O)[C@H](Cc1ccccc1)NC(=O)[C@H](CC(=O)O)NC(=O)[C@H](CCC(N)=O)NC(=O)[C@H](C)NC(=O)[C@H](CCCNC(=N)N)NC(=O)[C@H](CCCCNC(=O)COCCOCCNC(=O)COCCOCCNC(=O)CC[C@H](NC(=O)CCCCCCCCCCCCCCCCC(=O)O)C(=O)O)NC(=O)[C@H](CO)NC(=O)[C@H](CCC(=O)O)NC(=O)[C@H](CC(C)C)NC(=O)[C@](C)(Cc1ccccc1)NC(=O)[C@H](CCCCN)NC(=O)[C@H](CO)NC(=O)[C@@H](NC(=O)[C@H](CC(=O)O)NC(=O)[C@H](CO)NC(=O)[C@@H](NC(=O)[C@H](Cc1ccccc1)NC(=O)[C@@H](NC(=O)CNC(=O)[C@H](CCC(N)=O)NC(=O)C(C)(C)NC(=O)[C@@H](N)Cc1c[nH]cn1)[C@@H](C)O)[C@@H](C)O)C(C)C)C(C)C)C(=O)N[C@@H](CC(C)C)C(=O)NC(C)(C)C(=O)N[C@@H](CCC(=O)O)C(=O)O` [Peptide 482] (H-H[Aib]QGTFTSDVSK[αMeF]LESK([AEEA-AEEA-γGlu-C18 diacid])RAQDFVQWLL[Aib]E-OH; N-terminus assumed), the EC50 in test [1] (setting [3]) amounted to 190 pM; in test [2] (setting [4]), 691 pM. In test [1] (Table 6), the “% Relative Potency Ratio” value is reported as 7.2.
For the compound `CCCCCCCCCCCCCCCC(=O)N[C@@H](CCC(=O)N[C@@H](CCC(=O)NCCOCCOCCC(=O)NCCOCCOCCC(=O)NCCCC[C@H](NC(=O)[C@H](CCCCN)NC(=O)[C@H](CO)NC(=O)[C@@H](NC(=O)[C@H](CC(=O)O)NC(=O)[C@H](CO)NC(=O)[C@@H](NC(=O)[C@](C)(Cc1ccccc1)NC(=O)[C@H](CO)NC(=O)CNC(=O)[C@H](CCC(N)=O)NC(=O)[C@H](CO)NC(=O)[C@@H](N)Cc1c[nH]cn1)[C@@H](C)O)C(C)C)C(=O)N[C@@H](CC(C)C)C(=O)N[C@@H](CC(=O)O)C(=O)N[C@@H](CO)C(=O)N[C@H](C(=O)N[C@@H](C)C(=O)N[C@@H](C)C(=O)N[C@@H](CCC(N)=O)C(=O)N[C@@H](CC(=O)O)C(=O)N[C@@](C)(Cc1ccccc1)C(=O)N[C@H](C(=O)N[C@@H](CCC(=O)O)C(=O)NC(C)(C)C(=O)N[C@@H](CC(C)C)C(=O)N[C@@H](C)C(=O)N[C@@H](CC(N)=O)C(=O)N[C@H](C(N)=O)[C@@H](C)O)C(C)C)C(C)(C)CCNC(=N)N)C(=O)O)C(=O)O` [Peptide 400, HSQGS(αMePhe)TSDVSKK((PEG)2-(PEG)2-γE-γE-Palmitoyl)13LDS(β-dimethylArg)AAQD(αMePhe)VE(Aib)LANT-amide] (H-HSQGS[αMeF]TSDVSKK([PEG2-PEG2-γGlu-γGlu-Palmitoyl])LDS[X1]AAQD[αMeF]VE[Aib]LANT-NH2; N-terminus assumed), the “% Relative Potency Ratio” value in test [1] is 16.7. Besides, the EC50 in test [1] (cAMP, CHO cells, 0.1% BSA, geometric mean, read-out: hGLP-1R EC50) is 1.27 pM; in test [2] (cAMP, CHO cells, 0.1% BSA, read-out: hGluc-R EC50), 10.7 pM.
Regarding `CC(C)C[C@H](NC(=O)[C@H](Cc1c[nH]c2ccccc12)NC(=O)[C@H](CCC(N)=O)NC(=O)[C@@H](NC(=O)[C@H](Cc1ccccc1)NC(=O)[C@H](CC(=O)O)NC(=O)[C@H](CCCCNC(=O)COCCOCCNC(=O)COCCOCCNC(=O)CC[C@H](NC(=O)CCCCCCCCCCCCCCCCC(=O)O)C(=O)O)NC(=O)[C@H](C)NC(=O)[C@H](CCCNC(=N)N)NC(=O)[C@H](CCCNC(=N)N)NC(=O)[C@H](CO)NC(=O)[C@H](CC(=O)O)NC(=O)[C@H](CC(C)C)NC(=O)[C@](C)(Cc1ccccc1)NC(=O)[C@H](CCCCN)NC(=O)[C@H](CO)NC(=O)[C@@H](NC(=O)[C@H](CC(=O)O)NC(=O)[C@H](CO)NC(=O)[C@@H](NC(=O)[C@H](Cc1ccccc1)NC(=O)[C@@H](NC(=O)CNC(=O)[C@H](CCC(N)=O)NC(=O)C(C)(C)NC(=O)[C@@H](N)Cc1c[nH]cn1)[C@@H](C)O)[C@@H](C)O)C(C)C)C(C)C)C(=O)N[C@@H](CC(C)C)C(=O)NC(C)(C)C(=O)N[C@H](C(=O)N[C@@H](CCC(=O)O)C(=O)O)[C@@H](C)O` [Peptide 333], the EC50 stood at 135 pM in test [1] (setting [5]) and 213 pM in test [2] (setting [6]). The “% Relative Potency Ratio” value in test [1] (Table 7) is on record as 3.1.
Turning to `CC[C@H](C)[C@H](NC(=O)[C@H](Cc1c[nH]c2ccccc12)NC(=O)[C@H](CCC(N)=O)NC(=O)[C@@H](NC(=O)[C@H](Cc1ccccc1)NC(=O)[C@H](CC(=O)O)NC(=O)[C@H](CCCCNC(=O)COCCOCCNC(=O)COCCOCCNC(=O)CC[C@H](NC(=O)CC[C@H](NC(=O)CCCCCCCCCCCCCCCCCCC(=O)O)C(=O)O)C(=O)O)NC(=O)[C@H](C)NC(=O)C(C)(C)NC(=O)[C@H](CCCNC(=N)N)NC(=O)[C@H](CO)NC(=O)[C@H](CC(=O)O)NC(=O)[C@H](CC(C)C)NC(=O)[C@](C)(Cc1ccccc1)NC(=O)[C@H](CCCCN)NC(=O)[C@H](CO)NC(=O)[C@@H](NC(=O)[C@H](CC(=O)O)NC(=O)[C@H](CO)NC(=O)[C@@H](NC(=O)[C@](C)(Cc1ccccc1)NC(=O)[C@H](CO)NC(=O)CNC(=O)[C@H](Cc1c[nH]cn1)NC(=O)C(C)(C)NC(=O)[C@@H](N)Cc1c[nH]cn1)[C@@H](C)O)C(C)C)C(C)C)C(=O)N[C@@H](C)C(=O)N[C@@H](CC(N)=O)C(=O)N[C@H](C(N)=O)[C@@H](C)O` [Peptide 217] (H-H[Aib]HGS[αMeF]TSDVSK[αMeF]LDSR[Aib]AK([AEEA-AEEA-γGlu-γGlu-C20 diacid])DFVQWIANT-NH2), the EC50 in test [1] (setting [5]) worked out at 264 pM; in test [2] (setting [6]), 127 pM. The “% Relative Potency Ratio” value in test [1] (Table 7) was 0.9.
As for `CCCCCCCCCCCCCCCCCC(=O)N[C@@H](CCC(=O)N[C@@H](CCC(=O)NCCOCCOCCC(=O)NCCOCCOCCC(=O)NCCCC[C@H](NC(=O)[C@H](CO)NC(=O)[C@H](CC(=O)O)NC(=O)[C@H](CC(C)C)NC(=O)[C@](C)(Cc1ccccc1)NC(=O)[C@H](CCCCN)NC(=O)[C@H](CO)NC(=O)[C@@H](NC(=O)[C@H](CC(=O)O)NC(=O)[C@H](CO)NC(=O)[C@@H](NC(=O)[C@](C)(Cc1ccccc1)NC(=O)[C@H](CO)NC(=O)CNC(=O)[C@H](CCC(N)=O)NC(=O)[C@H](CO)NC(=O)[C@@H](N)Cc1c[nH]cn1)[C@@H](C)O)C(C)C)C(=O)N[C@@H](C)C(=O)N[C@@H](C)C(=O)N[C@@H](CCC(N)=O)C(=O)N[C@@H](CC(=O)O)C(=O)N[C@@](C)(Cc1ccccc1)C(=O)N[C@H](C(=O)N[C@@H](CCC(N)=O)C(=O)NC(C)(C)C(=O)N[C@H](C(=O)N[C@H](C(=O)N[C@@H](CCC(=O)O)C(=O)NCC(=O)NCC(N)=O)C(C)C)C(C)C)C(C)C)C(=O)O)C(=O)O` [Peptide 85] (H-HSQGS[αMeF]TSDVSK[αMeF]LDSK([PEG2-PEG2-γGlu-γGlu-Stearoyl])AAQD[αMeF]VQ[Aib]VVEGG-NH2; N-terminus assumed), the concentration for a half-maximal effect (EC50) was 1.04 pM in test [1] (setting [3]) and 47.7 pM in test [2] (setting [4]). Moreover, in test [1] (Table 6), the “% Relative Potency Ratio” value stood at 90.9.
In the case of `CC[C@H](C)[C@H](NC(=O)[C@H](Cc1c[nH]c2ccccc12)NC(=O)[C@H](CCCCNC(=O)CC[C@H](NC(=O)CC[C@H](NC(=O)CCOCCOCCNC(=O)CC[C@H](NC(=O)CC[C@H](NC(=O)CCCCCCCCCCCCCCCCC(=O)O)C(=O)O)C(=O)O)C(=O)O)C(=O)O)NC(=O)[C@@H](NC(=O)[C@H](Cc1ccccc1)NC(=O)[C@H](CC(=O)O)NC(=O)[C@H](CCC(N)=O)NC(=O)[C@H](C)NC(=O)[C@H](C)NC(=O)[C@H](CCC(N)=O)NC(=O)[C@H](CO)NC(=O)[C@H](CC(=O)O)NC(=O)[C@H](CC(C)C)NC(=O)[C@](C)(Cc1ccccc1)NC(=O)[C@H](CCCCN)NC(=O)[C@H](CO)NC(=O)[C@@H](NC(=O)[C@H](CC(=O)O)NC(=O)[C@H](CO)NC(=O)[C@@H](NC(=O)[C@](C)(Cc1ccccc1)NC(=O)[C@H](CO)NC(=O)CNC(=O)[C@H](Cc1c[nH]cn1)NC(=O)C(C)(C)NC(=O)[C@@H](N)Cc1c[nH]cn1)[C@@H](C)O)C(C)C)C(C)C)C(=O)N[C@@H](C)C(=O)N[C@@H](CC(N)=O)C(=O)N[C@H](C(N)=O)[C@@H](C)O` [Peptide 353] (H-H[Aib]HGS[αMeF]TSDVSK[αMeF]LDSQAAQDFVK([γGlu-γGlu-PEG2-γGlu-γGlu-C18 diacid])WIANT-NH2; N-terminus assumed), in test [1], the “% Relative Potency Ratio” value turned out to be 1.0. The EC50 in test [1] (hGLP-1R EC50 (pM)) worked out at 311 pM; in test [2] (hGluc-R EC50 (pM), cAMP, CHO cells, 0.1% BSA) it was 163 pM.
For `CC(C)C[C@H](NC(=O)[C@H](Cc1c[nH]c2ccccc12)NC(=O)[C@H](CCC(N)=O)NC(=O)[C@@H](NC(=O)[C@H](Cc1ccccc1)NC(=O)[C@H](CC(=O)O)NC(=O)[C@H](CCCCNC(=O)CC[C@H](NC(=O)CCCCCCCCCCCCCCCCC(=O)O)C(=O)O)NC(=O)[C@H](C)NC(=O)[C@H](CCCNC(=N)N)NC(=O)[C@H](CCCNC(=N)N)NC(=O)[C@H](CO)NC(=O)[C@H](CC(=O)O)NC(=O)[C@H](CC(C)C)NC(=O)[C@](C)(Cc1ccccc1)NC(=O)[C@H](CCCCN)NC(=O)[C@H](CO)NC(=O)[C@H](Cc1ccc(O)cc1)NC(=O)[C@H](CC(=O)O)NC(=O)[C@H](CO)NC(=O)[C@@H](NC(=O)[C@H](Cc1ccccc1)NC(=O)[C@@H](NC(=O)CNC(=O)[C@H](CCC(N)=O)NC(=O)C(C)(C)NC(=O)[C@@H](N)Cc1c[nH]cn1)[C@@H](C)O)[C@@H](C)O)C(C)C)C(=O)N[C@@H](CC(C)C)C(=O)NC(C)(C)C(=O)N[C@H](C(=O)N[C@@H](CCC(=O)O)C(=O)O)[C@@H](C)O` [Peptide 340], the half-maximal effective concentration (EC50) in test [1] (setting [5]) was 312 pM; in test [2] (setting [6]) it was 94.7 pM. Moreover, the “% Relative Potency Ratio” value in test [1] (Table 7) came to 0.6.
